Measurements as given in patent publication US20220378763A1, “COMPOUND FOR TREATMENT OF ACUTE INFLAMMATION IN THE MYOCARDIUM” (CALPROTECT AB, priority 2019, published 2022).

How the values were obtained:
Format in all cases: in vivo, mouse
[1] = tested on: C57BL/6 mice with sepsis induced by bacterial lipopolysaccharide; assay: LPS-induced sepsis: echocardiography; settings: 30 mg/kg i.p. at 0 and 6 h after LPS
Experimental: Female C57BL/6NRJ mice, 10 weeks of age, were purchased from Janvier Labs and housed under 12 h:12 h light:dark cycles with access to food and water ad libitum. The mice were randomly assigned to the two treatment groups, n=5 mice per group. Sepsis was induced by intraperitoneal (i.p.) injection of 5 mg/kg bacterial lipopolysaccharide (Sigma-Aldrich) in all animals. Immediately thereafter and 6 h later, the mice received treatment with 30 mg/kg ABR-238901 or an equivalent volume of PBS administered i.p. The mice were monitored daily to ensure their well-being. All mouse studies were approved by the Animal Research Ethics Committee of Lund University.
Transthoracic echocardiography was performed at baseline before induction of sepsis, and at 6 h, 12 h and 24 h using the Vevo 3100 platform (VisualSonics) equipped with a MX550D imaging transducer. Anesthesia was induced with 2% Isoflurane (AbbVie) and maintained with 1.25% Isoflurane throughout imaging. Hair was removed using depilatory cream before the application of pre-warmed ultrasound gel. Parasternal long axis recordings were performed in the plane containing the aortic valves and a maximal apex view. Analysis was carried out using the VevoLab software (Visual Sonics). Briefly, the perimeter and long axis of the left ventricle were traced at the end of diastole and at the end of systole and used to calculate left ventricular end-systolic and end-diastolic volumes. Left ventricular stroke volume was calculated as the difference between the left ventricular end-diastolic and end-systolic volumes. Left ventricular ejection fraction was calculated as percentage stroke volume out of the end-diastolic volume. Cardiac output was calculated by multiplying the stroke volume with the heart rate at the time of the examination.

[2] = tested on: C57BL/6 mice with sepsis induced by bacterial lipopolysaccharide; assay: LPS-induced sepsis: plasma cytokines by multiplex assay; settings: 24 h after sepsis induction, vs PBS
Experimental: General animal care, induction of sepsis and treatments were performed as described under Example 7. We included 5 mice per treatment group. The mice were sacrificed 24 h after sepsis induction and blood was drawn using cardiac puncture with an EDTA 0.5M coated syringe. Blood was spun down at 3000 rpm for 10 minutes and plasma was collected.
Cytokine measurements were performed using the Cytokine & Chemokine 36-Plex Mouse procartaPlex™ P1A (ThermoFischer Scientific) as per manufacturer's instructions. Data are presented as mean±SD.

[3] = tested on: BALB/c mice with induced myocarditis; assay: Myocarditis induced by cardiac α-myosin peptide: echocardiography; settings: 30 mg/kg/day orally from day 7
Experimental: Female BALB/c mice, 8 weeks of age, were purchased from Taconic and housed under 12 h:12 h light:dark cycles with access to food and water ad libitum. To induce myocarditis, all mice were injected subcutaneously (s.c.) with 100 μg murine cardiac a-myosin heavy chain peptide (Ac-RSLKLMATLFSTYASADR-OH, Anaspec) emulsified 1:1 in complete Freund's adjuvant containing 1 mg/mL heat-killed Mycobacterium tuberculosis H37Ra (Sigma-Aldrich), on days 0 and 7 (FIG. 17A). ABR-238901 was administered orally ad-libitum diluted in meglumine buffer (to prevent precipitation in the drinking bottle during the course of the experiment) at a dose of 30 mg/kg/day, starting on day 7 and throughout the course of the experiment (n=9 mice). Fluid intake was closely monitored during the experiment to ensure an appropriate drug dosage. Mice with induced myocarditis drinking meglumine buffer alone ad-libitum were used as controls (n=12 mice). Mice received daily attendance to ensure their well-being. All mouse studies were approved by the Animal Research Ethics Committee of Lund University.
Transthoracic echocardiography was performed as described under Example 7. Cardiac function was evaluated by echocardiography at baseline and at 21, 28 and 35 days after the first injection of murine cardiac a-myosin heavy chain peptide.

[4] = tested on: BALB/c mice with induced myocarditis; assay: Myocarditis induced by cardiac α-myosin peptide: flow cytometry of heart and heart-draining lymph nodes; settings: day 21
Experimental: Animal care, induction of myocarditis and treatments were performed as described above (Example 11) (n=10 mice per group). The mice were sacrificed on day 21, and hearts and mediastinal heart-draining lymph nodes were isolated.
Single cell suspensions were obtained from the organs by mechanic sectioning and enzymatic digestion, and the cells were stained with fluorescently-conjugated antibodies for analysis by flow cytometry. After euthanization, the mice were perfused intra-cardially with 20 ml ice-cold PBS, hearts and mediastinal lymph nodes were harvested and placed in PBS on ice. Hearts were cut in small pieces for 2 min while placed in digestion mixture containing 450 U/ml Collagenase I-S (Sigma-Aldrich, C0130), 125 U/ml Collagenase XI (Sigma-Aldrich, C7657), 60 U/ml Hyaluronidase Type I-S(Sigma-Aldrich H3506), 60 U/ml DNAse I (Sigma-Aldrich, DN25), and 20 mM HEPES (Fischer Scientific, SH3023701) in PBS, and thereafter incubated for 1 h at 37° C. with gentle agitation. Enzymatically-digested tissues were passed through a 70 μm cell strainer and washed twice with PBS. Mediastinal lymph nodes were passed through a 70 μm cell strainer and washed twice with PBS before staining. Single cell suspensions were stained in PBS with Zombie Aqua live/dead (BioLegend, 423102) for 10 min at RT followed by extracellular staining in FC-buffer (PBS, 0.5% BSA and 20 mM EDTA) with fluorescently-conjugated antibodies for 20 min on ice. The following monoclonal antibodies were used: anti-CD3ε (clone 145-2C11), anti-CD4 (clone OKT4), anti-CD8 (clone RPA-T8), anti-CD11b (clone EP1345Y), anti-CD11c (clone N418), anti-CD19 (clone 6D5), anti-CD44 (clone IM7), anti-CD45.2 (clone 104), anti-CD49b (clone DX5) anti-CD62L (clone MEL-14), […], anti-CD69 (clone X54-5/7.1), anti-CD115 (clone AFS98), anti-Ly-6C (clone HK1.4), anti-Ly-6G (clone 1A8), anti-MerTK (clone DS5MMER), anti-MHCII (clone M5/114.15.2), anti-Siglec-F (clone E50-2440). Appropriate single stains were performed using AbC Total Antibody Compensation Bead kit (Thermo Fischer Scientific) or with cells for live/dead. Flow cytometry analysis was done using a Gallios Flow Cytometer (Beckman Coulter) and data was analyzed using the FlowJo software (Tree Star).

COc1ncc(S(=O)(=O)Nc2cncc(Cl)c2O)cc1Br [ABR-238901, 5-bromo-N-(5-chloro-4-hydroxypyridin-3-yl)-6-methoxypyridine-3-sulfonamide]
Left ventricular ejection fraction (LVEF) ([1]; 12 h): 44.7%
Cardiac output ([1]; 24 h): 9.17 mL/min
Left ventricular ejection fraction (LVEF) ([1]; 24 h): 54.74%
Plasma level of GM-CSF [2]: decreased
Plasma level of IFN-γ [2]: decreased
Plasma level of IL17-A [2]: decreased
Plasma level of IL-1b [2]: decreased
Plasma level of IL-6 [2]: decreased
Plasma level of IL-22 [2]: decreased
Plasma level of LIF [2]: decreased
Plasma level of LIX [2]: decreased
Plasma level of MCP-1 [2]: decreased
Cardiac output ([3]; day 28): 11.26 mL/min
Left ventricular ejection fraction (LVEF) ([3]; day 28): 52%
Cardiac output ([3]; day 35): 12.03 mL/min
Left ventricular ejection fraction (LVEF) ([3]; day 35): 53%
Cardiac eosinophil infiltration, percent of live CD45+ leukocytes [4]: 7.5%
Effector memory (CD44+CD62L−) CD4+ T cells in heart-draining lymph nodes, percent of live CD45+CD3+ T cells [4]: 15.9%
Effector memory (CD44+CD62L−) CD8+ T cells in heart-draining lymph nodes, percent of live CD45+CD3+ T cells [4]: 23.3%
Infiltration of cDCs in the heart, % of live CD45+ leukocytes [4]: 5.7%
Total CD3+ T cells in heart-draining lymph nodes, % of live CD45+ leukocytes [4]: 59.5%
